Reference: PMC12313710, “Targeting the BAG2/CHIP axis promotes gastric cancer apoptosis by blocking apoptosome assembly” (Frontiers in Immunology, 2025)

Biological target: T1, CHIP (Homo sapiens, UniProt Q9UNE7)
T1 construct: gene STUB1; commercial human recombinant CHIP (OriGene)
T1 sequence (Q9UNE7 1-303): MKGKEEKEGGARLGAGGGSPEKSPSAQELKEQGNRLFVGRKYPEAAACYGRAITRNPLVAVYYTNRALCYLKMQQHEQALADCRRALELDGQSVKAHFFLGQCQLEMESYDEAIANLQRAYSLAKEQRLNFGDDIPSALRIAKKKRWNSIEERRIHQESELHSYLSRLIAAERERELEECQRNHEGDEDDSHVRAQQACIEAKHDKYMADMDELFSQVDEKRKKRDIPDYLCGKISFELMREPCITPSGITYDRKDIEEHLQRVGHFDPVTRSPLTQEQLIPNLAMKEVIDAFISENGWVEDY
Experiment: microscale thermophoresis, Monolith NT.[…], single-site fit
Format: binding

C=CC(=O)Nc1ccc(CN2C(=O)N(c3cc(OC)cc(OC)c3)Cc3cnc(Nc4ccc(N5CCN(C)CC5)cc4)nc32)cc1 [FIIN-2]
Kd: 1830 nM
